Measurements from ChEMBL document CHEMBL5247643, “Discovery and Characterization of BAY-805, a Potent and Selective Inhibitor of Ubiquitin-Specific Protease USP21” (J Med Chem, 2023).
The source made the active and inactive calls. The rule behind the calls is not given here.

Assays:
Conditions in all cases: dose 10-50 µM
[1] = biological target: T1, Ubiquitin carboxyl-terminal hydrolase 5 (Homo sapiens) (UniProt P45974); assay: Inhibition of human USP5 using ubiquitin rhodamine 110 as substrate at 10 to 50 uM by fluorometric assay
T1 sequence (whole entry): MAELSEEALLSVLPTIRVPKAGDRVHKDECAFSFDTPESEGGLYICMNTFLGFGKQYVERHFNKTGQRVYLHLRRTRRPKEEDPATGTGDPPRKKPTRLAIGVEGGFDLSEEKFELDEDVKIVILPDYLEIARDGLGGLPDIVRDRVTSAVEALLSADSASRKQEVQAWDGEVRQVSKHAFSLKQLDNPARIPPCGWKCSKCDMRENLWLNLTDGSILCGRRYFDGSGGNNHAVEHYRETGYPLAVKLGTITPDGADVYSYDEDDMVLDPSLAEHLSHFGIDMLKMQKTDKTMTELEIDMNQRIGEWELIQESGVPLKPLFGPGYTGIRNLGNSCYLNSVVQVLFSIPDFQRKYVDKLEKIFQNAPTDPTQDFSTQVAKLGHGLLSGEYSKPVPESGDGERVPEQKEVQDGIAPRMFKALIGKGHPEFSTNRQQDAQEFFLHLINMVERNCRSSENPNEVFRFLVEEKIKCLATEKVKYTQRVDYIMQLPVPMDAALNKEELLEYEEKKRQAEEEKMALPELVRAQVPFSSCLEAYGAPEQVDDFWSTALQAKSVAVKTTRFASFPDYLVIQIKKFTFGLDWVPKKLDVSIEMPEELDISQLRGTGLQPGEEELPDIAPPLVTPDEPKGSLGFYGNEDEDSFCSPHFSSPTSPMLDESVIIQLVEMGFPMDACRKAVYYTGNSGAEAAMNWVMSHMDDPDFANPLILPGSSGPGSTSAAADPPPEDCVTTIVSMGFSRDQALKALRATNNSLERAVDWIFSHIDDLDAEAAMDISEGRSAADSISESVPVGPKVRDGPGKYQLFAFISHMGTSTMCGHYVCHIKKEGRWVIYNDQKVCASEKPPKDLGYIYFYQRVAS

[2] = biological target: T2, Ubiquitin carboxyl-terminal hydrolase 30 (Homo sapiens) (UniProt Q70CQ3); assay: Inhibition of human USP30 using ubiquitin rhodamine 110 as substrate at 10 to 50 uM by fluorometric assay
T2 sequence (whole entry): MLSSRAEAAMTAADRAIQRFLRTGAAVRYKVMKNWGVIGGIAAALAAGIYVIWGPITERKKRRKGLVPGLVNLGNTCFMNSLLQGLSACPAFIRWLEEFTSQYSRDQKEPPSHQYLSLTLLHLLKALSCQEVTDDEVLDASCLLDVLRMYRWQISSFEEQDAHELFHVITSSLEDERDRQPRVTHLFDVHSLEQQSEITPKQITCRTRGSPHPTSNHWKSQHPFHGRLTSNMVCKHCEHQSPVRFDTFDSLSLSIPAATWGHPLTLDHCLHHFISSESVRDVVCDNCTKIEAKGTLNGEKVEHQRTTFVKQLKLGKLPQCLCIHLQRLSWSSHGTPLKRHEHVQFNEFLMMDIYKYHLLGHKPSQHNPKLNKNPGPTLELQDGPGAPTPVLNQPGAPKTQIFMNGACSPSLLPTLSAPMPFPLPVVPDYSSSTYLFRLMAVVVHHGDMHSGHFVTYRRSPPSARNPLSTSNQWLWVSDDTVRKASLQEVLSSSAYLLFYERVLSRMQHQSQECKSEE

[3] = biological target: T3, Ubiquitin carboxyl-terminal hydrolase 15 (Homo sapiens) (UniProt Q9Y4E8); assay: Inhibition of human USP15 (1 to 952 residues) expressed in Sf9 cells using ubiquitin rhodamine 110 as substrate assessed as remaining enzyme activity at 10 to 50 uM by fluorometric assay
T3 sequence (whole entry): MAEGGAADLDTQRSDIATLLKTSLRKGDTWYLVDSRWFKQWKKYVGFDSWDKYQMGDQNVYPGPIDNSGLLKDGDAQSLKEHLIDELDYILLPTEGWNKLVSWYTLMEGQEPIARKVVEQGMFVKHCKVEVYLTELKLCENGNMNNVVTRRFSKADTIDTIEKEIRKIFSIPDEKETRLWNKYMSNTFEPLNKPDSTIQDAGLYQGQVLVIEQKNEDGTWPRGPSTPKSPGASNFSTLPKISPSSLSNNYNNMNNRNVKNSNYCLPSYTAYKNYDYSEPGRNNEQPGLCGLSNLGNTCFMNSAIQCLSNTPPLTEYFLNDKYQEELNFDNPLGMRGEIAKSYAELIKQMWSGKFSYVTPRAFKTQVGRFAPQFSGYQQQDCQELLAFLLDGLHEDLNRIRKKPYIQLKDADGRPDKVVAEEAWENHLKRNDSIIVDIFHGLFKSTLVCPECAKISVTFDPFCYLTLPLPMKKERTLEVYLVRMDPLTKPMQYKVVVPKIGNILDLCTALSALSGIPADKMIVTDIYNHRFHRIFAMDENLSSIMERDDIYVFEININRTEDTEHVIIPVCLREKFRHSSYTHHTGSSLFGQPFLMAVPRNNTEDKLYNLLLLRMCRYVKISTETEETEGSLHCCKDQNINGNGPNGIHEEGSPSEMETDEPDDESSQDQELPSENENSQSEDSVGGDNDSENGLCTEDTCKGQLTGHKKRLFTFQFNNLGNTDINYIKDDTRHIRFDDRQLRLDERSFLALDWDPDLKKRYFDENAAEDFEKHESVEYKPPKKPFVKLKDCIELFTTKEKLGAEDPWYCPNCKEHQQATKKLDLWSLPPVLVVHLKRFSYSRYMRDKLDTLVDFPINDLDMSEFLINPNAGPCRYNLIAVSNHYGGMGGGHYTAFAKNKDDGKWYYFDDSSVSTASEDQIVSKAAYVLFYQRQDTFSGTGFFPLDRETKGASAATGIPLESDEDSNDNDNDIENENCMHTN

Ataxin-3 (Homo sapiens) = Ataxin-3 (Homo sapiens) (UniProt P54252); assay: Inhibition of human Ataxin-3 (1 to 370 residues) expressed in Escherichia coli BL21 (DE3) using ubiquitin rhodamine 110 as substrate assessed as remaining enzyme activity at 10 to 50 uM by fluorometric assay
Sequence of Ataxin-3 (Homo sapiens) (P54252 whole entry, the tested form may be a part): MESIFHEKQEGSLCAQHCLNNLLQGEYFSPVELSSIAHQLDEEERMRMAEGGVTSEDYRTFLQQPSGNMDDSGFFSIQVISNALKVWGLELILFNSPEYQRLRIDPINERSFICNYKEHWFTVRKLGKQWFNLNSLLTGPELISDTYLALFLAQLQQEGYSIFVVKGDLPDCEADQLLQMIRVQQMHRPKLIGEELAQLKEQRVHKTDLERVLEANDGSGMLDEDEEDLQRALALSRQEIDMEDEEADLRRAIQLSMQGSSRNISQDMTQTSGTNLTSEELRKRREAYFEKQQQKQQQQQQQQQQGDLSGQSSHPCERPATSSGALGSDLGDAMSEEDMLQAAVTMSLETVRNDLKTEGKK

| inhibition [1] | inhibition [2] | Activity [3] [%] | Structure (SMILES) | Activity (Ataxin-3 (Homo sapiens)) [%] |
| --- | --- | --- | --- | --- |
| inactive | inactive | – | CC(C)C[C@H](NC(=O)C1(C(F)(F)F)CCCCC1)C(=O)Nc1nnc(Cc2ccc(C#N)cc2)s1 | – |
| – | – | < 50 | CC(NC(=O)C1CCCC1)C(=O)Nc1nnc(Cc2ccc([N+](=O)[O-])cc2)s1 (racemic) | < 50 |
